From ChEMBL document CHEMBL1122834, “Synthesis and in vitro pharmacology of 7-oxabicyclo[2.2.1]heptane analogues of thromboxane A2/PGH2” (J Med Chem, 1985)

Experiments:
Thromboxane-A synthase [1] = target: T1, Thromboxane-A synthase (Homo sapiens, UniProt P24557); assay: Inhibition of human platelet Thromboxane synthetase; conditions: read-out: I50
T1 sequence (P24557 whole entry): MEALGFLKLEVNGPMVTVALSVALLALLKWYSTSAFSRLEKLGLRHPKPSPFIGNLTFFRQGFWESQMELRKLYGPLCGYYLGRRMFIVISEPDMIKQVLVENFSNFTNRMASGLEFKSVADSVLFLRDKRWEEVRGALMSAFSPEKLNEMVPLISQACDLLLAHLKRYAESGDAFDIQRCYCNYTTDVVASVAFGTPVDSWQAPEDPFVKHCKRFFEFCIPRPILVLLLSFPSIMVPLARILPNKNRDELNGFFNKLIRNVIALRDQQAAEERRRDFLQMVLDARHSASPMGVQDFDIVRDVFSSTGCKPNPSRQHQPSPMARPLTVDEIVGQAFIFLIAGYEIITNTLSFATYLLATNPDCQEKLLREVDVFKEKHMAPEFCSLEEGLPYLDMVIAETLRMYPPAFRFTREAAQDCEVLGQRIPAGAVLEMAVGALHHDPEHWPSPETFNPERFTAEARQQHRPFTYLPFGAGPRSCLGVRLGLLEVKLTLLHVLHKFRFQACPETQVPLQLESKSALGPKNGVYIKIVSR

Homo sapiens [2] = species: Homo sapiens; assay: Stimulatory activity against aggregation of human platelet induced by epinephrine 2; format: functional
Homo sapiens [3] = species: Homo sapiens; assay: Inhibitory activity against aggregation of human platelet induced by adenosine diphosphate; format: functional
Homo sapiens [4] = species: Homo sapiens; assay: Inhibitory activity against aggregation of human platelet induced by epinephrine 1; format: functional
Rattus norvegicus = species: Rattus norvegicus; assay: Direct effect on rat stomach strip (RSS) preparation; format: functional
Homo sapiens [5] = species: Homo sapiens; assay: Inhibitory activity against aggregation of human platelet induced by arachidonic acid; format: functional; conditions: read-out: I50
Homo sapiens [6] = species: Homo sapiens; assay: Stimulatory activity against aggregation of human platelet induced by arachidonic acid; format: functional
Homo sapiens [7] = species: Homo sapiens; assay: Inhibitory activity against aggregation of human platelet induced by epinephrine 2; format: functional
Cavia porcellus [8] = species: Cavia porcellus; assay: Selectivity against 9,11-AZO-PGH2 induced contractions of smooth muscle guinea pig trachea; format: functional
Homo sapiens [9] = species: Homo sapiens; assay: Stimulatory activity against aggregation of human platelet induced by epinephrine 1; format: functional
Homo sapiens [10] = species: Homo sapiens; assay: Stimulatory activity against aggregation of human platelet induced by adenosine diphosphate; format: functional
Cavia porcellus [11] = species: Cavia porcellus; assay: Selectivity against histamine in smooth muscle of guinea pig trachea stimulated with histamine; format: functional; conditions: Muscle tissue
[12] = target: T2, Thromboxane-A synthase (Homo sapiens) (UniProt P24557); conditions: 1000 uM
T2 sequence (whole entry): T1 sequence (P24557 whole entry)
Description: Inhibitory activity against human platelet Thromboxane synthetase at a dose of 1000 uM

Homo sapiens [13] = species: Homo sapiens; assay: stimulatory activity against aggregation of human platelet induced by adenosine diphosphate; format: functional
Homo sapiens [14] = species: Homo sapiens; assay: stimulatory activity against aggregation of human platelet induced by epinephrine 2; format: functional
Homo sapiens [15] = species: Homo sapiens; assay: stimulatory activity against aggregation of human platelet induced by arachidonic acid; format: functional
Homo sapiens [16] = species: Homo sapiens; assay: stimulatory activity against aggregation of human platelet induced by epinephrine 1; format: functional
Thromboxane-A synthase [17] = target: T1, Thromboxane-A synthase; assay: Inhibitory activity against human platelet Thromboxane synthetase; conditions: read-out: I 50

Compound | IC50 (Thromboxane-A synthase [1]) [µM] | IC50 (Homo sapiens [3]; Homo sapiens, read-out: I50) [µM] | IC50 (Homo sapiens [4]; Homo sapiens, read-out: I50) [µM] | A50 (Rattus norvegicus) [µM] | IC50 (Homo sapiens [5]; Homo sapiens) [µM] | IC50 (Homo sapiens [7]; Homo sapiens, read-out: I50) [µM] | IC50 (Cavia porcellus [8]; read-out: I50) [µM] | IC50 (Cavia porcellus [11]; read-out: I50) [µM] | IC50 (Homo sapiens [5]) [µM] | IC50 (Homo sapiens [7]; read-out: I50) [µM] | further results
CCCCC[C@H](O)/C=C/[C@H]1C2CCC(O2)[C@H]1C/C=C\CCCC(=O)O (stereo partly specified) | > 1000 | > 1000 | > 1000 | 0.22 | 9.2 | 0.6 | 2.1 | > 10 | – | – | A50 (Homo sapiens [2]): 20 µM; A50 (Homo sapiens [6]): 20 µM; A50 (Homo sapiens [9]): 20 µM; A50 (Homo sapiens [10]): 20 µM
CCCCC[C@H](O)/C=C/[C@@H]1C2CCC(O2)[C@H]1C/C=C\CCCC(=O)O (stereo partly specified) | 1000 | 1.6 | 2.2 | 2.9 | 0.3 | 4.2 | 0.34 | 2.4 | – | – | A50 (Homo sapiens [2]): 30 µM; A50 (Homo sapiens [6]): 30 µM; A50 (Homo sapiens [9]): 30 µM; A50 (Homo sapiens [10]): 30 µM
CCCCC[C@H](O)/C=C/[C@H]1C2CCC(O2)[C@@H]1C/C=C\CCCC(=O)O (stereo partly specified) | > 1000 | > 1000 | > 1000 | 0.0009 | 23 | 56 | 2.2 | > 10 | – | – | A50 (Homo sapiens [2]): 0.26 µM; A50 (Homo sapiens [6]): 0.26 µM; A50 (Homo sapiens [9]): 0.26 µM; inhibition [12]: 71%; A50 (Homo sapiens [10]): 0.26 µM
CCCCC[C@@H](O)/C=C/[C@H]1C2CCC(O2)[C@H]1C/C=C\CCCC(=O)O (stereo in doubt; 2b) | > 1000 | > 1000 | > 1000 | >10 | – | 130 | > 10 | > 10 | 360 | – | –
CCCCC[C@H](O)/C=C/[C@@H]1C2CCC(O2)[C@@H]1C/C=C\CCCC(=O)O (stereo in doubt; 2c) | > 1000 | – | > 1000 | – | – | 6 | – | – | 310 | – | IC50 (Homo sapiens [3]; read-out: I50): > 1000 µM
CCCCC[C@@H](O)/C=C/[C@@H]1C2CCC(O2)[C@@H]1C/C=C\CCCC(=O)O (stereo in doubt; 2d) | 560 | > 1000 | – | – | 140 | – | – | – | – | – | –
CCCCC[C@@H](O)/C=C/[C@@H]1C2CCC(O2)[C@@H]1C/C=C\CCCC(=O)O (stereo in doubt; 3a) | 1000 | – | – | 0.0015 | – | – | > 10 | > 10 | – | – | A50 (Homo sapiens [13]): 2 µM; A50 (Homo sapiens [14]): 2 µM; A50 (Homo sapiens [15]): 2 µM; A50 (Homo sapiens [16]): 2 µM
CCCCC[C@H](O)/C=C/[C@@H]1C2CCC(O2)[C@@H]1C/C=C\CCCC(=O)O (stereo in doubt; 3b) | 1000 | – | – | 0.4 | – | – | 0.12 | > 10 | 0.6 | 7.5 | IC50 (Homo sapiens [3]; read-out: I50): 310 µM; IC50 (Homo sapiens [4]; read-out: I50): 670 µM
CCCCC[C@@H](O)/C=C/[C@H]1C2CCC(O2)[C@H]1C/C=C\CCCC(=O)O (stereo in doubt; 3d) | – | – | – | – | – | – | – | – | 93 | 170 | –
CCCCC[C@@H](O)/C=C/[C@@H]1C2CCC(O2)[C@H]1C/C=C\CCCC(=O)O (stereo in doubt; 4a) | – | – | – | 0.51 | – | – | – | – | 4.2 | – | IC50 (Homo sapiens [3]; read-out: I 50): 150 µM; IC50 (Homo sapiens [4]; read-out: I 50): > 1000 µM; IC50 (Homo sapiens [7]; read-out: I 50): 10 µM; IC50 (Cavia porcellus [8]; read-out: I 50): 65 µM; IC50 (Thromboxane-A synthase [17]): 770 µM; IC50 (Cavia porcellus [11]; read-out: I 50): > 10 µM
CCCCC[C@@H](O)/C=C/[C@H]1C2CCC(O2)[C@@H]1C/C=C\CCCC(=O)O (stereo in doubt; 4d) | 470 | > 1000 | 670 | – | – | – | – | – | 1000 | 140 | –
CCCCC[C@@H](O)/C=C/[C@H]1C2CCC(O2)[C@@H]1C/C=C\CCCC(=O)O (stereo in doubt; 5b) | > 1000 | – | – | 0.88 | – | – | 4.9 | > 10 | 9.5 | 0.7 | IC50 (Homo sapiens [4]; read-out: I50): > 1000 µM
CCCCC[C@@H](O)/C=C/[C@@H]1C2CCC(O2)[C@H]1C/C=C\CCCC(=O)O (stereo in doubt; 5d) | > 1000 | > 1000 | > 1000 | – | – | 52 | – | – | 95 | – | –
